Measured values from PMC9138683, “Decoding the Role of Melatonin Structure on Plasmodium falciparum Human Malaria Parasites Synchronization Using 2-Sulfenylindoles Derivatives” (Biomolecules, 2022).
Entries after “also recorded” stand apart in the source; their conditions may differ.

System: Plasmodium falciparum Dd2 (chloroquine-resistant)
Assay: In vitro drug susceptibility assay, Dd2 strain (flow cytometry, SYBR Green I / MitoTracker Deep Red)
Assay type: cell-based
Conditions: Plasmodium falciparum, DD2, 72 h, asynchronous parasites, 72 h, 0.1-100 µM; read-out: IC50 ± SD PfDd2
Description: (§1) The cultures were maintained under an atmosphere of 5% CO2, 5% O2, and 90% N2. Fresh complete medium was provided daily, and rapid-stained (Panotico) blood smears were examined.
(§2) To evaluate the effects of synthetic compounds on the intraerythrocytic development of P. falciparum, we analyzed parasitemia by flow cytometry with 0.3% initial parasitemia and 1% hematocrit in the assay. Plates were incubated with the compounds at concentrations ranging from 0.10 to 100 µM for 72 h. Dual staining with SYBR Green I (SG-I) (Invitrogen, Waltham, MA, USA) and MitoTracker Deep Red (MT-Red) (Invitrogen) were used to label nucleic acids and mitochondria, respectively. Approximately 10,000 cells were counted by an Accuri C6 (Becton Dickinson, San Jose, CA, USA) and analyzed by FlowJo 5 software. Parasitemia was determined from the analysis of dot plots (side scatter versus fluorescence).
(§3) We determined the susceptibility of P. falciparum to the indole compounds and investigated whether CQR parasites responded differently to the compounds. […] We determined the IC50 values for each compound by analyzing viable and non-viable parasites after compound treatment, represented in dot plots (Figure 1H).

Row | Compound | IC50
1 | COC(=O)Cc1c(Sc2ccccc2)[nH]c2ccccc12 [Compound 3] | < 20 µM
2 | COC(=O)Cc1c(Sc2cccc(O)c2)[nH]c2ccccc12 [Compound 7] | 55.4 ± 2.96 µM
3 | COC(=O)Cc1c(Sc2ccccc2C(=O)O)[nH]c2ccccc12 [Compound 8] | 43.3 ± 6.51 µM
4 | COC(=O)Cc1c(Sc2ncccn2)[nH]c2ccccc12 [Compound 10] | 43.6 ± 3.06 µM

Further lines, results first:

Row | IC50 | Compound
5 | 37.1 ± 7.66 µM | COC(=O)Cc1c(SCc2ccccc2)[nH]c2ccccc12 [Compound 14]
6 | 48.5 ± 2.88 µM | COC(=O)Cc1c(SC(C)(C)C)[nH]c2ccccc12 [Compound 16]

Same assay, conditions: asynchronous parasites, 72 h, 0.1-100 µM; read-out: IC50 ± SD PfDd2

Row | IC50 | Compound
7 | 18 ± 1.72 µM | COC(=O)Cc1c(Sc2ccccc2)[nH]c2ccccc12 [Compound 3]

System: P. falciparum 3D7 strain
Assay: Blood-stage development evaluation by microscopy
Assay type: cell-based, Plasmodium falciparum
Conditions: ring-stage synchronized 3D7, treated at IC50 (30 µM for 20 and 28), monitored every 12 h
Description: Ring-stage parasites (10–14 h) at 1% parasitemia in 2% hematocrit were treated with compound 20 and compound 28 at concentrations of 1 and 30 µM in 24-well plates for 48 h. Treatment with chloroquine (20 nM) and DMSO (0.1%) was used as positive and negative controls. Smears were rapid stained (Panotico) every 12 h after treatment (12, 24, 36, 48, and 60 h time points), and we took images of parasites to assess the blood-stage development (Zeiss, Oberkochen, Germany).
During monitoring, parasites continued to develop throughout the cycle in the presence of both compounds. […] To examine its stage specificity, we monitored development every 12 h.
Figure 5 Parasitemia reduction with compound 20 (A) and compound 28 (B) to determine the stage activity. Data are means ± SD. Ring-stage synchronized parasites with sorbitol 5% were treated with chloroquine (20 nM), compound 20 (30 µM), and compound 28 (30 µM). The chosen treatment concentration was the IC50 values obtained for these compounds against the 3D7 parasites. (C) After drug administration, smears of P. falciparum 3D7 strain were taken at 0, 12, 24, 36, 48, and 60 h after drug administration, observing the growth development of treated parasites. * p ≤ 0.05, ** p ≤ 0.01, *** p ≤ 0.001.

Row | Compound | stage-specific effect on blood-stage development
8 | COC(=O)Cc1c(Sc2ccccc2)[nH]c2ccccc12 [Compound 3] | reduced the progress from rings to trophozoites; also recorded: affect ring to trophozoite progression

System: Plasmodium falciparum 3D7 (chloroquine-sensitive)
Assay: In vitro drug susceptibility assay, 3D7 strain (flow cytometry, SYBR Green I / MitoTracker Deep Red)
Assay type: cell-based
Conditions: Plasmodium falciparum, 3D7, 72 h, asynchronous parasites, 72 h, 0.1-100 µM; read-out: IC50 ± SD Pf3D7
Description: as §1, §2, §3

Row | Compound | IC50
9 | COC(=O)Cc1c(Sc2ccccc2)[nH]c2ccccc12 [Compound 3] | < 20 µM
10 | COC(=O)Cc1c(Sc2cccc(O)c2)[nH]c2ccccc12 [Compound 7] | 58.2 ± 2.45 µM
11 | COC(=O)Cc1c(Sc2ccccc2C(=O)O)[nH]c2ccccc12 [Compound 8] | 37.3 ± 3.58 µM
12 | COC(=O)Cc1c(Sc2ncccn2)[nH]c2ccccc12 [Compound 10] | 54.9 ± 2.25 µM

Results, then the compound that gave them:

Row | IC50 | Compound
13 | 20.9 ± 2.97 µM | COC(=O)Cc1c(SCc2ccccc2)[nH]c2ccccc12 [Compound 14]
14 | 31.7 ± 5.09 µM | COC(=O)Cc1c(SC(C)(C)C)[nH]c2ccccc12 [Compound 16]

Same assay, conditions: asynchronous parasites, 72 h, 0.1-100 µM; read-out: IC50 ± SD Pf3D7

Row | IC50 | Compound
15 | 10.6 ± 5.19 µM | COC(=O)Cc1c(Sc2ccccc2)[nH]c2ccccc12 [Compound 3]

System: P. falciparum 3D7 parasites
Assay: Effect of 2-sulfenylindoles in combination with 100 nM melatonin on parasitemia
Assay type: cell-based, Plasmodium falciparum
Conditions: 500 nM compound + 100 nM melatonin, 3D7, 48 h
Description: (§4) To evaluate the role of the compounds in parasitemia, 1% 3D7 parasites in 2% hematocrit were incubated for 48 h with 500 nM of the 2-sulfenylindole derivatives. Melatonin (100 nM) was used as a positive control, and DMSO (0.0013% v/v) was used as a negative control. The concentration of DMSO chosen as control was the concentration present in the tested compounds at 500 nM. The activity of the compounds was measured by SG-I and MT-Red staining. The data obtained were normalized to those of the control (DMSO). Additionally, to test the ability of the compounds to affect melatonin activity in parasitemia, 3D7 parasites were incubated with 500 nM indole compounds along with 100 nM melatonin for 48 h.
Following the assumption that compounds resembling melatonin structure might interact through the melatonin signaling pathways, we evaluated the effect of the compounds on melatonin action on parasitemia. Our next step was to study the combination of 2-sulfenylindoles with melatonin in asynchronous 3D7 by incubating parasites simultaneously with 100 nM melatonin and 500 nM of each compound.

Row | Compound | effect on melatonin action on parasitemia (in words)
16 | COC(=O)Cc1c(Sc2ccccc2)[nH]c2ccccc12 [Compound 3] | slight increase in parasitemia

Same assay, conditions: 500 nM compound + 100 nM melatonin, 3D7, 48 h, versus control group (100.7%)

Row | Compound | increase in parasitemia compared to control group
17 | COC(=O)Cc1c(Sc2cccc(O)c2)[nH]c2ccccc12 [Compound 7] | 22.2%

Same assay, conditions: 3D7, 48 h, normalized to DMSO control

Row | Compound | Parasitemia (%) Treatment with compound (500nM) + Melatonin (100nM)
18 | COC(=O)Cc1c(Sc2ccccc2)[nH]c2ccccc12 [Compound 3] | 129.8 ± 6.78%
19 | COC(=O)Cc1c(Sc2cccc(O)c2)[nH]c2ccccc12 [Compound 7] | 122.9 ± 5.60%
20 | COC(=O)Cc1c(Sc2ccccc2C(=O)O)[nH]c2ccccc12 [Compound 8] | 133.5 ± 8.06%
21 | COC(=O)Cc1c(Sc2ncccn2)[nH]c2ccccc12 [Compound 10] | 130.2 ± 6.02%
22 | COC(=O)Cc1c(SCc2ccccc2)[nH]c2ccccc12 [Compound 14] | 128.5 ± 4.13%
23 | COC(=O)Cc1c(SC(C)(C)C)[nH]c2ccccc12 [Compound 16] | 127.4 ± 4.10%

System: not listed separately
Assay: Cytotoxicity assay (MTT)
Assay type: cell-based, human
Conditions: human, HEK293T (HEK293) cells, 0.10-100 µM, read-out: CC50 ± SD HEK293
Description: HEK293T (human embryonic kidney) cells were cultured in 75 cm^2 vented tissue culture flasks (Greiner Bio-One, Frickenhausen, Germany) at 37 °C in a humidified atmosphere containing 5% CO2 in Dulbecco’s modified […] (Gibco) supplemented with 10% (v/v) fetal bovine serum (Gibco), 100 U/mL penicillin, and 100 μg/mL streptomycin (Sigma). Cytotoxicity was evaluated with the 4,5-dimethylthiazol-2-yl-2,5-diphenyltetrazolium bromide (MTT) cell proliferation assay. Briefly, 10^4 cells/well were seeded in flat-bottom 96-well plates in complete DMEM medium for 24 h, followed by incubation with different concentrations of each compound (0.10–100 µM) for 72 h. DMSO (0.13%) and digitonin were used as the negative and positive controls, respectively. The concentrations of DMSO chosen as control were the concentration present in the tested compounds (from 0.0001% to 0.12%, two-fold dilution). After 72 h, cells were then incubated with the MTT reagent for 3 h, and absorbance was measured at 570 nm using a FlexStation® 3 Multi-Mode Microplate Reader (Molecular Devices, Sunnyvale, CA, USA). Moreover, we calculated the selectivity indexes (SI) to understand whether the compounds were more toxic to parasites than cells, or vice versa, according to the ratio of the CC50 value to the IC50 value for each compound.
We further assessed the toxicity of 2-sulfenylindole compounds against HEK293 cells using the MTT assay with different concentrations of the compounds for 72 h. Table 1 presents all the toxicity data and summarizes the IC50 values of the compounds evaluated in this study for Dd2 and 3D7 strains.

Row | Compound | CC50 at 72 h
24 | COC(=O)Cc1c(Sc2ccccc2)[nH]c2ccccc12 [Compound 3] | 15.2 ± 1.36 µM
25 | COC(=O)Cc1c(Sc2cccc(O)c2)[nH]c2ccccc12 [Compound 7] | 31.6 ± 4.03 µM
26 | COC(=O)Cc1c(Sc2ccccc2C(=O)O)[nH]c2ccccc12 [Compound 8] | > 100 µM
27 | COC(=O)Cc1c(Sc2ncccn2)[nH]c2ccccc12 [Compound 10] | > 100 µM
28 | COC(=O)Cc1c(SCc2ccccc2)[nH]c2ccccc12 [Compound 14] | 23.7 ± 8.54 µM
29 | COC(=O)Cc1c(SC(C)(C)C)[nH]c2ccccc12 [Compound 16] | 26.5 ± 8.7 µM

System: P. falciparum 3D7 parasites
Assay: Effects of indole derivatives (500 nM) on parasitemia
Assay type: cell-based, Plasmodium falciparum
Conditions: 500 nM compound alone, 3D7 asynchronous, 48 h
Description: as §4
After incubation, the final parasitemia was determined using flow cytometry.

Row | Compound | effect on parasitemia (in words)
30 | COC(=O)Cc1c(Sc2ccccc2)[nH]c2ccccc12 [Compound 3] | no increase was observed
31 | COC(=O)Cc1c(SC(C)(C)C)[nH]c2ccccc12 [Compound 16] | led to an increase in parasitemia

Same assay, conditions: 500 nM compound, 3D7, 48 h, compared to DMSO control

Row | Compound | decrease in parasitemia
32 | COC(=O)Cc1c(Sc2cccc(O)c2)[nH]c2ccccc12 [Compound 7] | 4.05%

Same assay, conditions: 500 nM compound, 3D7, 48 h, compared to DMSO control (100.6%)

Row | Compound | increase in parasitemia
33 | COC(=O)Cc1c(SC(C)(C)C)[nH]c2ccccc12 [Compound 16] | 11.2%

Same assay, conditions: Plasmodium falciparum; 3D7, 48 h, normalized to DMSO control; read-out: Parasitemia (%) Treatment with compound (500nM)

Row | Compound | activity at 0.5 µM
34 | COC(=O)Cc1c(Sc2ccccc2)[nH]c2ccccc12 [Compound 3] | 98.2 ± 2.28%
35 | COC(=O)Cc1c(Sc2cccc(O)c2)[nH]c2ccccc12 [Compound 7] | 96.5 ± 2.39%
36 | COC(=O)Cc1c(Sc2ccccc2C(=O)O)[nH]c2ccccc12 [Compound 8] | 102 ± 1.71%
37 | COC(=O)Cc1c(Sc2ncccn2)[nH]c2ccccc12 [Compound 10] | 101 ± 2.14%
38 | COC(=O)Cc1c(SCc2ccccc2)[nH]c2ccccc12 [Compound 14] | 97.8 ± 3.41%
39 | COC(=O)Cc1c(SC(C)(C)C)[nH]c2ccccc12 [Compound 16] | 112 ± 1.76%
